# Legend:
# Test in all cases: relative viability (nuclei count vs DMSO), 5 days (fraction); higher = more cells survive
# 201T = system: 201T
# In short: (§1)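 Lung cancer cell lines, seeded in 1536-well plates, were treated the following day by pin tool with a single drug or with five library-drug doses (not always all listed) in √10 steps on top of a fixed anchor-drug dose. Cells were fixed and nuclei stained in one step after 5 days, and nuclei were counted. Relative viability is the nuclei count for treated wells divided by that for vehicle wells, reported as medians of duplicate plates.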
# A-427 = system: A-427
# In short: as §1
# COR-L23 = system: COR-L23
# In short: as §1
# H3255 = system: H3255
# In short: as §1
# HCC-44 = system: HCC-44
# In short: as §1
# LCLC-103H = system: LCLC-103H
# In short: as §1
# LCLC-97TM1 = system: LCLC-97TM1
# In short: as §1
# LK-2 = system: LK-2
# In short: as §1
# LU99A = system: LU99A
# In short: as §1
# NCI-H1650 = system: NCI-H1650
# In short: as §1
# NCI-H1793 = system: NCI-H1793
# In short: as §1
# NCI-H1944 = system: NCI-H1944
# In short: as §1
# NCI-H2347 = system: NCI-H2347
# In short: as §1
# NCI-H23 = system: NCI-H23
# In short: as §1
# NCI-H460 = system: NCI-H460
# In short: as §1
# NCI-H650 = system: NCI-H650
# In short: as §1
# NCI-H727 = system: NCI-H727
# In short: as §1
# NCI-H838 = system: NCI-H838
# In short: as §1
# PC-14 = system: PC-14
# In short: as §1
# PC-3 [JPC-3] = system: PC-3 [JPC-3]
# In short: as §1
# SW 1573 = system: SW 1573
# In short: as §1
# SW 900 = system: SW 900
# In short: as §1
smiles,measurement,setting,value
CC1(C)CCC(c2ccc(Cl)cc2)=C(CN2CCN(c3ccc(C(=O)NS(=O)(=O)c4ccc(N[C@H](CCN5CCOCC5)CSc5ccccc5)c(S(=O)(=O)C(F)(F)F)c4)cc3)CC2)C1 [Navitoclax] + O=C(c1cc(Cc2n[nH]c(=O)c3ccccc23)ccc1F)N1CCN(C(=O)C2CC2)CC1 [Olaparib] (partner 8 µM),relative viability,201T; first compound 0.005 µM,0.829
same,relative viability,201T; first compound 0.01581 µM,0.871
same,relative viability,201T; first compound 0.05 µM,0.806
same,relative viability,201T; first compound 0.1581 µM,0.832
same,relative viability,201T; first compound 0.5 µM,0.85
same,relative viability,A-427; first compound 0.005 µM,0.71
same,relative viability,A-427; first compound 0.01581 µM,0.682
same,relative viability,A-427; first compound 0.05 µM,0.782
same,relative viability,A-427; first compound 0.1581 µM,0.808
same,relative viability,A-427; first compound 0.5 µM,0.737
same,relative viability,COR-L23; first compound 0.005 µM,0.374
same,relative viability,COR-L23; first compound 0.01581 µM,0.405
same,relative viability,COR-L23; first compound 0.05 µM,0.375
same,relative viability,COR-L23; first compound 0.1581 µM,0.367
same,relative viability,COR-L23; first compound 0.5 µM,0.398
same,relative viability,H3255; first compound 0.005 µM,0.563
same,relative viability,H3255; first compound 0.01581 µM,0.626
same,relative viability,H3255; first compound 0.05 µM,0.57
same,relative viability,H3255; first compound 0.1581 µM,0.57
same,relative viability,H3255; first compound 0.5 µM,0.506
same,relative viability,HCC-44; first compound 0.005 µM,0.971
same,relative viability,HCC-44; first compound 0.01581 µM,0.98
same,relative viability,HCC-44; first compound 0.05 µM,0.887
same,relative viability,HCC-44; first compound 0.1581 µM,0.943
same,relative viability,HCC-44; first compound 0.5 µM,0.932
same,relative viability,LCLC-103H; first compound 0.005 µM,0.715
same,relative viability,LCLC-103H; first compound 0.01581 µM,0.817
same,relative viability,LCLC-103H; first compound 0.05 µM,0.729
same,relative viability,LCLC-103H; first compound 0.1581 µM,0.738
same,relative viability,LCLC-103H; first compound 0.5 µM,0.705
same,relative viability,LCLC-97TM1; first compound 0.005 µM,0.34
same,relative viability,LCLC-97TM1; first compound 0.01581 µM,0.599
same,relative viability,LCLC-97TM1; first compound 0.05 µM,0.243
same,relative viability,LCLC-97TM1; first compound 0.1581 µM,0.409
same,relative viability,LCLC-97TM1; first compound 0.5 µM,0.445
same,relative viability,LK-2; first compound 0.005 µM,0.797
same,relative viability,LK-2; first compound 0.01581 µM,0.744
same,relative viability,LK-2; first compound 0.05 µM,0.618
same,relative viability,LK-2; first compound 0.1581 µM,0.726
same,relative viability,LK-2; first compound 0.5 µM,0.798
same,relative viability,LU99A; first compound 0.005 µM,0.257
same,relative viability,LU99A; first compound 0.01581 µM,0.275
same,relative viability,LU99A; first compound 0.1581 µM,0.269
same,relative viability,LU99A; first compound 0.5 µM,0.276
same,relative viability,NCI-H1650; first compound 0.005 µM,0.67
same,relative viability,NCI-H1650; first compound 0.01581 µM,0.829
same,relative viability,NCI-H1650; first compound 0.05 µM,0.803
same,relative viability,NCI-H1650; first compound 0.1581 µM,0.784
same,relative viability,NCI-H1650; first compound 0.5 µM,0.649
same,relative viability,NCI-H1793; first compound 0.005 µM,0.903
same,relative viability,NCI-H1793; first compound 0.01581 µM,1.05
same,relative viability,NCI-H1793; first compound 0.1581 µM,0.885
same,relative viability,NCI-H1793; first compound 0.5 µM,0.684
same,relative viability,NCI-H1944; first compound 0.005 µM,0.383
same,relative viability,NCI-H1944; first compound 0.01581 µM,0.403
same,relative viability,NCI-H1944; first compound 0.1581 µM,0.412
same,relative viability,NCI-H1944; first compound 0.5 µM,0.401
same,relative viability,NCI-H2347; first compound 0.005 µM,0.558
same,relative viability,NCI-H2347; first compound 0.01581 µM,0.585
same,relative viability,NCI-H2347; first compound 0.05 µM,0.537
same,relative viability,NCI-H2347; first compound 0.1581 µM,0.61
same,relative viability,NCI-H2347; first compound 0.5 µM,0.51
same,relative viability,NCI-H23; first compound 0.005 µM,0.328
same,relative viability,NCI-H23; first compound 0.01581 µM,0.301
same,relative viability,NCI-H23; first compound 0.05 µM,0.272
same,relative viability,NCI-H23; first compound 0.1581 µM,0.291
same,relative viability,NCI-H23; first compound 0.5 µM,0.343
same,relative viability,NCI-H460; first compound 0.005 µM,0.424
same,relative viability,NCI-H460; first compound 0.01581 µM,0.499
same,relative viability,NCI-H460; first compound 0.05 µM,0.359
same,relative viability,NCI-H460; first compound 0.1581 µM,0.388
same,relative viability,NCI-H460; first compound 0.5 µM,0.402
same,relative viability,NCI-H650; first compound 0.005 µM,0.395
same,relative viability,NCI-H650; first compound 0.01581 µM,0.453
same,relative viability,NCI-H650; first compound 0.05 µM,0.35
same,relative viability,NCI-H650; first compound 0.1581 µM,0.362
same,relative viability,NCI-H650; first compound 0.5 µM,0.386
same,relative viability,NCI-H727; first compound 0.005 µM,0.774
same,relative viability,NCI-H727; first compound 0.01581 µM,0.769
same,relative viability,NCI-H727; first compound 0.05 µM,0.738
same,relative viability,NCI-H727; first compound 0.1581 µM,0.559
same,relative viability,NCI-H727; first compound 0.5 µM,0.721
same,relative viability,NCI-H838; first compound 0.005 µM,0.775
same,relative viability,NCI-H838; first compound 0.01581 µM,0.818
same,relative viability,NCI-H838; first compound 0.05 µM,0.834
same,relative viability,NCI-H838; first compound 0.1581 µM,0.775
same,relative viability,NCI-H838; first compound 0.5 µM,0.768
same,relative viability,PC-14; first compound 0.005 µM,0.266
same,relative viability,PC-14; first compound 0.01581 µM,0.28
same,relative viability,PC-14; first compound 0.05 µM,0.283
same,relative viability,PC-14; first compound 0.1581 µM,0.219
same,relative viability,PC-14; first compound 0.5 µM,0.235
same,relative viability,PC-3 [JPC-3]; first compound 0.005 µM,1.1
same,relative viability,PC-3 [JPC-3]; first compound 0.01581 µM,1.14
same,relative viability,PC-3 [JPC-3]; first compound 0.05 µM,1.22
same,relative viability,PC-3 [JPC-3]; first compound 0.1581 µM,1.07
same,relative viability,PC-3 [JPC-3]; first compound 0.5 µM,0.871
same,relative viability,SW 1573; first compound 0.005 µM,0.486
same,relative viability,SW 1573; first compound 0.01581 µM,0.528
same,relative viability,SW 1573; first compound 0.05 µM,0.471
same,relative viability,SW 1573; first compound 0.1581 µM,0.431
same,relative viability,SW 1573; first compound 0.5 µM,0.367
same,relative viability,SW 900; first compound 0.005 µM,0.936
same,relative viability,SW 900; first compound 0.01581 µM,1.01
same,relative viability,SW 900; first compound 0.1581 µM,0.947
same,relative viability,SW 900; first compound 0.5 µM,0.841
